Data published in PubChem BioAssay AID330 (DTP/NCI, 2004).
Several values for one entry are separate records, joined by “and”; a condition that tells them apart may be missing. Equal entries are not always repeated. Toxic doses and inconclusive results are not listed. How the source made its calls: active means survival T/C of 150% or more; inactive means T/C below 125% in these data.

System: P388 leukemia ip, CD2F1 mice, survival T/C
Test: NCI In Vivo Anticancer Drug Screen. Data for tumor model P388 Leukemia (intraperitoneal) in CD2F1 (CDF1) mice
Details: endpoint: median survival time, higher = longer survival
In short: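 Mice carrying the transplanted tumor received test compound or vehicle. Survival was recorded in each group, and the value is the treated-group measurement divided by that of the vehicle-treated control group.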

[1] = dose: 6.25 mg/kg/injection, schedule: Q01DX009 (ip), vehicle: saline with Tween-80
[2] = dose: 12.5 mg/kg/injection, schedule: Q01DX009 (ip), vehicle: saline with Tween-80
[3] = dose: 25.0 mg/kg/injection, schedule: Q01DX009 (ip), vehicle: saline with Tween-80
[4] = dose: 50.0 mg/kg/injection, schedule: Q01DX009 (ip), vehicle: saline with Tween-80
[5] = dose: 100.0 mg/kg/injection, schedule: Q01DX009 (ip), vehicle: saline with Tween-80
[6] = dose: 200.0 mg/kg/injection, schedule: Q01DX009 (ip), vehicle: saline with Tween-80
[7] = dose: 400.0 mg/kg/injection, schedule: Q01DX009 (ip), vehicle: saline with Tween-80
[8] = dose: 50.0 mg/kg/injection, schedule: Q01DX009 (ip), vehicle: Klucel (hydroxypropylcellulose) (HPC)
[9] = dose: 12.5 mg/kg/injection, schedule: Q01DX005 (ip), vehicle: Klucel (hydroxypropylcellulose) (HPC)
[10] = dose: 50.0 mg/kg/injection, schedule: Q01DX005 (ip), vehicle: Klucel (hydroxypropylcellulose) (HPC)
[11] = dose: 100.0 mg/kg/injection, schedule: Q01DX005 (ip), vehicle: Klucel (hydroxypropylcellulose) (HPC)
[12] = dose: 100.0 mg/kg/injection, schedule: Q01DX005 (ip), vehicle: saline with Tween-80
[13] = dose: 200.0 mg/kg/injection, schedule: Q01DX005 (ip), vehicle: saline with Tween-80
[14] = dose: 50.0 mg/kg/injection, schedule: Q01DX005 (ip), vehicle: saline with Tween-80
[15] = dose: 200.0 mg/kg/injection, schedule: Q01DX005 (ip), vehicle: Klucel (hydroxypropylcellulose) (HPC)
[16] = dose: 50.0 mg/kg/injection, schedule: Q04DX002 (ip), vehicle: saline with Tween-80

Measured: T/C

c1ccc2c(c1)-c1nc-2nc2[nH]c(nc3nc(nc4[nH]c(n1)c1ccccc41)-c1ccccc1-3)c1cc3c4nc5nc(nc6[nH]c(nc7nc(nc([nH]4)c3cc21)-c1ccccc1-7)c1ccccc61)-c1ccccc1-5
inactive: dose: 60.0 mg/kg/injection, schedule: Q01DX005 (ip), vehicle: Klucel (hydroxypropylcellulose) (HPC) 106 % of control | dose: 120.0 mg/kg/injection, schedule: Q01DX005 (ip), vehicle: Klucel (hydroxypropylcellulose) (HPC) 100 % of control | dose: 240.0 mg/kg/injection, schedule: Q01DX005 (ip), vehicle: Klucel (hydroxypropylcellulose) (HPC) 97 % of control

CCOC(=O)CNc1c2ccc(Cl)cc2nc2ccc(OC)cc12
inactive: [1] 97 % of control | [2] 104 % of control | [3] 111 % of control | [4] 108 % of control | [5] 104 % of control

O=[N+]([O-])c1cccc2nc(-c3ccccn3)n(CCc3ccncc3)c12
inactive: dose: 50.0 mg/kg/injection, schedule: Q01DX001 (ip), vehicle: Klucel (hydroxypropylcellulose) (HPC) 104 % of control | dose: 100.0 mg/kg/injection, schedule: Q01DX001 (ip), vehicle: Klucel (hydroxypropylcellulose) (HPC) 104 % of control | dose: 200.0 mg/kg/injection, schedule: Q01DX001 (ip), vehicle: Klucel (hydroxypropylcellulose) (HPC) 101 % of control

COc1ccc(CC(=O)Cc2ccc(OC)c(OC)c2)cc1OC
inactive: [4] 101 % of control | [5] 111 % of control | [6] 95 % of control | [7] 99 % of control | dose: 600.0 mg/kg/injection, schedule: Q01DX009 (ip), vehicle: saline with Tween-80 87 % of control

CSc1cnnc2ccccc12
inactive: dose: 12.5 mg/kg/injection, schedule: Q01DX009 (ip), vehicle: Klucel (hydroxypropylcellulose) (HPC) 100 % of control and 95 % of control | dose: 25.0 mg/kg/injection, schedule: Q01DX009 (ip), vehicle: Klucel (hydroxypropylcellulose) (HPC) 100 % of control and 109 % of control and 88 % of control | [8] 100 % of control and 87 % of control

O=C(O)C1C(C(=O)O)C2C(=O)C=CC1N2Cc1ccccc1 (stereo unspecified)
inactive: [9] 105 % of control | dose: 25.0 mg/kg/injection, schedule: Q01DX005 (ip), vehicle: Klucel (hydroxypropylcellulose) (HPC) 99 % of control and 116 % of control | [10] 112 % of control and 114 % of control and 115 % of control | [11] 103 % of control and 118 % of control and 122 % of control

CN(C)N1C(=O)C(C(=O)Nc2cccc3ccccc23)SC1=S (stereo unspecified)
inactive: dose: 0.75 mg/kg/injection, schedule: Q01DX005 (ip), vehicle: saline with Tween-80 96 % of control | dose: 1.5 mg/kg/injection, schedule: Q01DX005 (ip), vehicle: saline with Tween-80 88 % of control | dose: 3.0 mg/kg/injection, schedule: Q01DX005 (ip), vehicle: saline with Tween-80 91 % of control | [12] 99 % of control | [13] 103 % of control

CC(C)(C)OC(=O)n1cnc(CC(NC(=O)OCc2ccccc2)C(=O)O)c1 (stereo unspecified)
inactive: [14] 105 % of control | [12] 100 % of control | [13] 106 % of control

CCN(CC)CCOC(=O)c1c(C)cc(C)cc1C
inactive: dose: 25.0 mg/kg/injection, schedule: Q04DX003 (ip), vehicle: saline 100 % of control | dose: 50.0 mg/kg/injection, schedule: Q04DX003 (ip), vehicle: saline 106 % of control | dose: 100.0 mg/kg/injection, schedule: Q04DX003 (ip), vehicle: saline 93 % of control

O=C(NC(Cc1ccc(Br)cc1)C(=O)O)c1ccc(I)cc1 (stereo unspecified)
inactive: [10] 98 % of control | [11] 98 % of control | [15] 107 % of control

OCCN(CCCN(CCO)C(=S)S)C(=S)S.[Cu+2]
inactive: dose: 12.5 mg/kg/injection, schedule: Q01DX005 (ip), vehicle: saline + Tween-80 + alcohol 98 % of control | dose: 25.0 mg/kg/injection, schedule: Q01DX005 (ip), vehicle: saline + Tween-80 + alcohol 99 % of control | dose: 50.0 mg/kg/injection, schedule: Q01DX005 (ip), vehicle: saline + Tween-80 + alcohol 102 % of control and 104 % of control

COn1nnc2ccccc21
inactive: [4] 99 % of control | [5] 104 % of control | [6] 92 % of control

COc1cc(CC2C(=O)OCC2Cc2ccc3c(c2)OCO3)cc(OC)c1OC (stereo unspecified)
inactive: [2] 98 % of control | [3] 104 % of control | [4] 100 % of control | dose: 50.0 mg/kg/injection, schedule: Q04DX002 (ip), vehicle: acetone 94 % of control | [16] 103 % of control | dose: 100.0 mg/kg/injection, schedule: Q04DX002 (ip), vehicle: acetone 100 % of control | dose: 100.0 mg/kg/injection, schedule: Q04DX002 (ip), vehicle: saline with Tween-80 100 % of control | dose: 200.0 mg/kg/injection, schedule: Q04DX002 (ip), vehicle: acetone 100 % of control | dose: 200.0 mg/kg/injection, schedule: Q04DX002 (ip), vehicle: saline with Tween-80 100 % of control

CC(C)(C)c1cc(C(O)(C(F)(F)F)C(F)(F)F)c(Cl)c(C(O)(C(F)(F)F)C(F)(F)F)c1
inactive: [10] 94 % of control | [11] 90 % of control | [15] 92 % of control

COc1cc(C2(C3C(CO)OC(=O)C3Cc3ccc4c(c3)OCO4)SCCCS2)cc(OC)c1OC (stereo unspecified)
inactive: dose: 25.0 mg/kg/injection, schedule: Q04DX002 (ip), vehicle: saline with Tween-80 100 % of control | [16] 87 % of control

C=C(C)CNCCN
inactive: [14] 112 % of control | [12] 112 % of control | [13] 112 % of control

N#Cc1ccc[n+](Cc2ccccc2)c1
inactive: [14] 100 % of control | [12] 103 % of control | [13] 100 % of control

Cc1cc(N)c2cc(NC(=O)CCCCCC(=O)Nc3ccc4nc(C)cc(N)c4c3)ccc2n1
inactive: [1] 100 % of control | [2] 110 % of control | [3] 118 % of control

CCCCCCCCCCCC(=O)/C=C/c1ccc(Cl)c(Cl)c1
inactive: [8] 102 % of control | dose: 100.0 mg/kg/injection, schedule: Q01DX009 (ip), vehicle: Klucel (hydroxypropylcellulose) (HPC) 90 % of control

CN(c1ccc(C2=NCCN2)cc1)S(=O)(=O)c1ccc(Cc2ccc(S(=O)(=O)N(C)c3ccc(C4=NCCN4)cc3)cc2)cc1
inactive: dose: 6.25 mg/kg/injection, schedule: Q01DX005 (ip), vehicle: Klucel (hydroxypropylcellulose) (HPC) 103 % of control | [9] 97 % of control

Cc1ccc(NC(=O)CC(=O)CC(C)C)cc1C
inactive: [14] 107 % of control | dose: 120.0 mg/kg/injection, schedule: Q01DX005 (ip), vehicle: saline with Tween-80 113 % of control | dose: 240.0 mg/kg/injection, schedule: Q01DX005 (ip), vehicle: saline with Tween-80 114 % of control

Nc1ccc(Br)cc1[N+](=O)[O-]
inactive: [4] 101 % of control | [5] 107 % of control | [6] 100 % of control | [7] 117 % of control

O=C(Nn1c(=S)[nH]c2ccccc2c1=O)c1ccc([N+](=O)[O-])cc1
inactive: dose: 60.0 mg/kg/injection, schedule: Q01DX005 (ip), vehicle: Klucel + Tween-80 93 % of control | dose: 120.0 mg/kg/injection, schedule: Q01DX005 (ip), vehicle: Klucel + Tween-80 87 % of control

CC(=O)O[C@H]1C(=O)C=C[C@H](C)[C@@H]2CC[C@H](OC(C)(C)C)[C@@]12C
inactive: [14] 102 % of control | [12] 98 % of control | [13] 108 % of control

S=C([S][Sn]([c]1ccccc1)([c]1ccccc1)[c]1ccccc1)N1CCOCC1
inactive: dose: 1.56 mg/kg/injection, schedule: Q01DX009 (ip), vehicle: saline with Tween-80 100 % of control | dose: 3.13 mg/kg/injection, schedule: Q01DX009 (ip), vehicle: saline with Tween-80 100 % of control and 103 % of control and 109 % of control | [1] 107 % of control and 108 % of control | [2] 105 % of control
